According to PubChem BioAssay (NCI):
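Tested at 5 concentrations; 48 h exposure; 96-well plates; endpoints linearly interpolated, else capped at highest concentration. Definition used: TGI = concentration required for complete inhibition of growth.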

Columns and labels:
Assay in all cases: NCI anticancer screen, dose series, 48 h
EKVX NSCLC = test system: EKVX NSCLC
MOLT-4 leukemia = test system: MOLT-4 leukemia
OVCAR-5 ovarian = test system: OVCAR-5 ovarian
SK-MEL-2 melanoma = test system: SK-MEL-2 melanoma
SNB-75 CNS = test system: SNB-75 CNS
SW-620 colon = test system: SW-620 colon
UACC-62 melanoma = test system: UACC-62 melanoma

Structure (SMILES) | TGI (EKVX NSCLC) | TGI (MOLT-4 leukemia) | TGI (OVCAR-5 ovarian) | TGI (SK-MEL-2 melanoma) | TGI (SNB-75 CNS) | TGI (SW-620 colon) | TGI (UACC-62 melanoma)
CC[C@@H]1NC(C(=O)OC)Cc2c1[nH]c1ccccc21 (stereo partly drawn) | > 100 µM | > 100 µM | > 100 µM | > 100 µM | > 100 µM | > 100 µM | > 100 µM
CCCCCCCCc1cc2c(O)c(c1)Cc1cc(CCCCCCCC)cc(c1O)Cc1cc(CCCCCCCC)cc(c1O)Cc1cc(CCCCCCCC)cc(c1O)Cc1cc(CCCCCCCC)cc(c1O)Cc1cc(CCCCCCCC)cc(c1O)C2 | – | > 100 µM | > 100 µM | > 100 µM | > 100 µM | > 100 µM | > 100 µM
O/N=C1\CCCCC1C(NO)c1ccccc1 (stereo not drawn) | > 100 µM | > 100 µM | > 100 µM | > 100 µM | > 100 µM | > 100 µM | > 100 µM
CCOC(=O)C(Br)=C1OC(=O)c2ccccc2-c2ccccc21 (mixture of isomers) | > 100 µM | 47.6 µM | 42.6 µM | 37.4 µM | 51 µM | 35.1 µM | 29.5 µM
O=C(c1ccc([N+](=O)[O-])cc1[N+](=O)[O-])N(/N=C/C=C/c1ccccc1)c1nnc(-c2ccccc2)c(-c2ccccc2)n1 | > 100 µM | > 100 µM | > 100 µM | 97.5 µM | 86.8 µM | > 100 µM | 70.4 µM
COc1cc(C[P+](c2ccccc2)(c2ccccc2)c2ccccc2)cc(OC)c1OC | > 100 µM | – | > 100 µM | > 100 µM | > 100 µM | > 100 µM | > 100 µM
O=S(=O)(OI(OI(OS(=O)(=O)C(F)(F)F)c1ccccc1)c1ccccc1)C(F)(F)F | > 100 µM | > 100 µM | > 100 µM | > 100 µM | > 100 µM | > 100 µM | > 100 µM
CCCN(CCC)c1c([N+](=O)[O-])cc(C(=O)N(CC)CC)cc1[N+](=O)[O-] | 61.3 µM | 50 µM | 94.3 µM | 43.5 µM | 82.7 µM | 84.1 µM | 69.1 µM
CCCCCCCC(=O)OCC1OC(n2cc(F)c(=O)[nH]c2=O)C(N)C(OC(=O)CCCCCCC)C1O (stereo not drawn) | 34 µM | 33.6 µM | – | 38.5 µM | 28.4 µM | 33.6 µM | 32.4 µM
O=c1[nH]c(=O)n(C2CC(O)C(CO)O2)cc1OS(=O)(=O)C(F)(F)F (stereo not drawn) | > 100 µM | > 100 µM | > 100 µM | > 100 µM | > 100 µM | > 100 µM | > 100 µM
CC(C)C1CN(C(=O)OCc2ccccc2)C2N1C(=O)C2(C)OCc1ccccc1 (stereo not drawn) | > 100 µM | 84 µM | – | 73.5 µM | 59.5 µM | > 100 µM | > 100 µM
O=C1C=C(c2c(O)ccc3ccccc23)c2cc(O)ccc2C1=O | 38.2 µM | 8.67 µM | 35.5 µM | 36.8 µM | 42.6 µM | 34.3 µM | 14.2 µM
CCOc1ccc(NC(=O)CC2SC(=Nc3ccc(C)cc3C)NC2=O)cc1 (stereo not drawn) | > 100 µM | 65 µM | > 100 µM | > 100 µM | > 100 µM | > 100 µM | > 100 µM
Oc1oc(C(=C2N=c3ccccc3=N2)c2ccc(Cl)cc2)c(O)c1-c1ccc(Cl)cc1 | 7.41 µM | 7.53 µM | 6.89 µM | – | 13 µM | 68.3 µM | 15.2 µM
O=C1C/C(Br)=C\c2ccccc2-c2ccccc21 | 21.8 µM | 7.81 µM | 6.06 µM | 12.2 µM | 7.65 µM | 2.98 µM | 5.09 µM
c1ccc2c(c1)CCc1c(-c3ccncc3)n[nH]c1-2 | 75.5 µM | 85.4 µM | > 100 µM | 38.4 µM | 77.7 µM | > 100 µM | 34.7 µM
COC(=N)c1csc(C2OC(CO)C(O)C2O)n1 (stereo not drawn) | > 100 µM | > 100 µM | > 100 µM | > 100 µM | – | > 100 µM | > 100 µM
CCC(C)(C)n1c(C)nc2c1C(=O)c1ccccc1C2=O | > 100 µM | > 100 µM | – | 42.3 µM | > 100 µM | > 100 µM | 36.1 µM
CN(C)CCNC(=O)Cc1ccccc1Nc1c(Cl)cccc1Cl | 43 µM | 36.7 µM | 24.2 µM | – | 27.4 µM | 34.5 µM | 33.3 µM
CC1=C(C(=O)Nc2ccccc2)C(c2ccc(Cl)c(Cl)c2)C(C(=O)Nc2ccccc2)=C(C)N1 | 30.9 µM | 3.04 µM | 32.4 µM | – | 35 µM | 34.7 µM | 22.6 µM
C/C(=N\NC(N)=O)c1sc(-c2nc(C)c(/C(C)=N/NC(N)=O)s2)nc1C | > 100 µM | > 100 µM | > 100 µM | > 100 µM | > 100 µM | – | > 100 µM
CN1Nc2ccccc2CC1=O | > 100 µM | – | > 100 µM | > 100 µM | > 100 µM | > 100 µM | > 100 µM
